Reference: US20150140002A1, “USE OF A PCSK9 INHIBITOR TO TREAT […]” (Sanofi, priority 2013, published 2015)
Several values for one entry are separate records, joined by “and”; a condition that tells them apart may be missing. Identical values can stand only once.

How the values were obtained:
[1] = system: patients with hypercholesterolemia at moderate cardiovascular (CV) risk; assay: Example 2: Phase 3 monotherapy trial mAb316P versus ezetimibe, lipid parameters; format: in vivo, human; settings: for Lp(a) adjusted mean (SE) % change from baseline to week 24 / TGs adjusted mean (SE) % change from baseline to week 24: combined estimate; for LDL-C (on treatment), mean (SD): ezetimibe arm (n = 51); for LDL-C LS mean (SE) change from baseline (%): baseline to Week 24
Excerpt: Randomization was stratified according to DM status. […] Patients were followed for 8 weeks after the last visit of the Double Blind Treatment Period (DBTP).
Double-blind treatment period (DBTP)—A randomized, double-blind double dummy study treatment period of 24 weeks. The first injection during the double-blind period was done at the site on the day of randomization (Week 0 [D1]-V3) and as soon as possible after the call to IVRS/IWRS for randomization into the study. The subsequent injections were done by the patient (self-injection) or another designated person (such as spouse, relative, etc.) at a patient-preferred location (home, etc.).
The primary efficacy endpoint was the percent change in calculated LDL-C from baseline to week 24, which is defined as: 100×(calculated LDL-C value at Week 24−calculated LDL-C value at baseline)/calculated LDL-C value at baseline.
Total-C, HDL-C, TG, Apo B, Apo A-1, and Lp (a) were directly measured. LDL-C was calculated using the Friedewald formula at all visits (except Week −1 and Follow Up visit). If TG values exceeded 400 mg/dL (4.52 mmol/L) then the central lab reflexively measured (via the beta quantification method) the LDL-C rather than calculating it. Non-HDL-C was calculated by subtracting HDL-C from the total-C. Ratio Apo B/Apo A-1 was calculated.
The primary endpoint was assessed in the intent-to-treat (ITT) population, which included all randomized patients who had at least 1 calculated LDL-C value at baseline and at one of the planned time points from weeks 4 to 24.
Missing data were accounted for by means of a mixed effect model with repeated measures (MMRM) approach (Siddiqui et al., MMRM vs. LOCF: a comprehensive comparison based on simulation study and 25 NDA datasets”, J Biopharm Stat, vol. 19, pp. 227-246 (2009); National Research Council, “The Prevention and Treatment of Missing Data in Clinical Trials” Panel on Handling Missing Data in Clinical Trials. Committee on National Statistics, Division of Behavioral and Social Sciences and Education. 2010. Washington, D.C.: The National Academies Press; Andersen et al., “On the practical application of mixed effects models for repeated measures to clinical trial data”, Pharm Stat., vol. 12, pp. 7-16 (2013)). For the ITT analysis, all available measurements at planned time points from weeks 4 to 24 (meaning week 4, 8, 12, 16, and 24), whatever their status on or off-treatment, were used in the MMRM. One MMRM model was used for LDL-C to provide least-squares means estimates and comparison between treatment arms at weeks 24 and 12. Further details on the model are given below. For the on-treatment analysis, all available on-treatment measurements (i.e. up to 21 days after last injection/3 days after last capsule, whichever comes first) at planned time points from weeks 4 to 24 were used in the MMRM model. In the same way as for the ITT analysis, one model was used to provide estimates and comparison at week 24 and week 12 for the on-treatment analysis. Continuous key secondary endpoints other than Lp(a) and triglycerides were analyzed in a similar fashion as the primary endpoint and description of the statistical methodology for secondary endpoints and subgroup analysis is provided below.
Outputs from the model were the baseline-adjusted least-squares (LS) mean estimates at week 24 for both treatment groups with their corresponding standard error (SE). Appropriate contrast statement was used to test the difference between these estimates at the 2-sided 5% alpha level.
To analyze the key secondary endpoints, a hierarchical procedure was used to control type I error and handle multiplicity. Secondary efficacy endpoints were tested sequentially using the order given above, in the intent-to-treat population.

[2] = system: patients with hypercholesterolemia at moderate cardiovascular (CV) risk; assay: Example 2: safety (TEAEs, laboratory parameters, vital signs)
Excerpt: The clinical laboratory data consisted of urinalysis and blood analysis, hematology (RBC count, red blood cell distribution width (RDW), reticulocyte count, hemoglobin, hematocrit, platelets, WBC count with differential blood count), standard chemistry (glucose, sodium, potassium, chloride, bicarbonate, calcium, phosphorous, urea nitrogen, creatinine, uric acid, total protein, LDH, albumin, γ Glutamyl Transferase [γGT]), Hepatitis C antibody, liver panel (ALT, AST, ALP, and total bilirubin), and CPK.
Safety endpoints—Vital signs measurement: Vital signs included: HR, systolic and diastolic BP in sitting position.
The safety analysis included all randomized and treated patients. Safety data were analyzed by descriptive statistics.

## O=C1[C@H](CC[C@H](O)c2ccc(F)cc2)[C@@H](c2ccc(O)cc2)N1c1ccc(F)cc1 [ezetimibe, reference compound]
[1]; ITT
  Apo A-1 LS mean (SE) % change from baseline to week 24: −0.6 (1.6) %
  Apo B LS mean (SE) % change from baseline to week 24: −11.0 (2.4) %
  HDL-C LS mean (SE) % change from baseline to week 24: 1.6 (1.9) %
  Non-HDL-C LS mean (SE) % change from baseline to week 24: −15.1 (2.9) %
  Total cholesterol LS mean (SE) % change from baseline to week 24: −10.9 (2.2) %
  Lp(a) adjusted mean (SE) % change from baseline to week 24: −12.3 (3.8) %
  TGs adjusted mean (SE) % change from baseline to week 24: −10.8 (4.3) %
  LDL-C LS mean (SE) change from baseline (%): −15.6%
[1]; ITT, excluding post up-titration data from patients up-titrated having LDL-C <100 mg/dL
  LDL-C LS mean (SE) Week 24 change from baseline (%): −15.6%
[1]; ITT, given as reduction
  LS mean (SE) percent reductions in LDL-C from baseline to week 24: 16 (3) %
[1]; ITT, mAb316P 75 mg Q2W before up-titration, ezetimibe 10 mg daily
  LDL-C reduction at week 12: 20 (3) % and 20%
[1]; On-treatment
  Apo A-1 LS mean (SE) % change from baseline to week 24: −0.7 (1.6) %
  Apo B LS mean (SE) % change from baseline to week 24: −11.5 (1.9) %
  HDL-C LS mean (SE) % change from baseline to week 24: 1.7 (1.9) %
  Non-HDL-C LS mean (SE) % change from baseline to week 24: −16.6 (1.9) %
  Total cholesterol LS mean (SE) % change from baseline to week 24: −12.0 (1.6) %
  Lp(a) adjusted mean (SE) % change from baseline to week 24: −12.3 (4.0) %
  TGs adjusted mean (SE) % change from baseline to week 24: −12.7 (4.2) %
  LDL-C LS mean (SE) change from baseline (%): −17.2%
[1]; Week 4
  LDL-C (on treatment), mean (SD): 109.9 (22.4) mg/dL
[1]; Week 12
  LDL-C (on treatment), mean (SD): 109.8 (25.2) mg/dL
[1]; Week 24
  LDL-C (on treatment), mean (SD): 113.4 (25.0) mg/dL
[1]; before up-titration, ITT
  estimated proportions of patients with LDL-C reductions ≧50% at week 12: 3%
[1]; before up-titration, on-treatment analysis
  proportions of patients with LDL-C reductions ≧50% at week 12: 2%
[1]; current study, discussion
  reduction in Lp(a): 12%
[1]; on-treatment analysis, given as reduction
  LS mean (SE) LDL-C reductions from baseline to week 24: 17 (2) %
[1]; on-treatment analysis, mAb316P 75 mg Q2W
  LDL-C reduction at week 12: 20 (2) % and 20%
[1]; summary, mAb316P 75mg Q2W arm, monotherapy population
  reduction in LDL-C at 12 weeks: 20%
[2]; Laboratory parameters
  Alanine aminotransferase (ALT) ≧3× ULN: 0/51
  Alanine aminotransferase (ALT) ≧3× ULN (if baseline ALT <ULN) or ≧2× the baseline value (if baseline ALT ≧ULN): 0/51
  Albumin ≦25 g/L: 0/50
  Aspartate aminotransferase >3× ULN: 0/51
  Glucose ≦70 mg/dL (3.9 mmol/L) and <LLN: 0/50
[2]; Safety Population
  Patients with any TEAE: 40 (78.4) n (%)
  Patients with any TEAE leading to death: 0 n (%)
  Patients with any TEAE leading to treatment discontinuation: 4 (7.8) n (%)
  Patients with any treatment emergent SAE: 1 (2.0) n (%)
[2]; TEAE
  Arthralgia: 2 (3.9) n (%)
  Diarrhea: 2 (3.9) n (%)
  Dizziness: 3 (5.9) n (%)
  Headaches: 2 (3.9) n (%)
  Nasopharyngitis: 8 (15.7) n (%)
  Nausea: 3 (5.9) n (%)
  Upper respiratory tract infection: 5 (9.8) n (%)
  Urinary tract infection: 3 (5.9) n (%)
  back pain: 3 (5.9) n (%)
[2]; TEAEs of interest
  General disorders and administration site conditions: 5 (9.8) n (%)
  Injection site reaction: 2 (3.9) n (%)
  Muscle disorders: 2 (3.9) n (%)
  Musculoskeletal and connective tissue disorders: 11 (21.6) n (%)
  Musculoskeletal and connective tissue disorders NEC: 5 (9.8) n (%)
  Musculoskeletal pain: 1 (2.0) n (%)
  Myalgia: 1 (2.0) n (%)
  muscle spasms: 1 (2.0) n (%)
[2]; discussion
  Muscle-related AEs: 4%
[2]; disposable autoinjector
  injection related AEs: < 4%
[2]; in vivo
  Muscle-related TEAEs: 2 (4%) patients (%)
  overall percentage of patients who experienced at least one TEAE: 78%
  patients with abnormalities in vital signs (blood pressure, heart rate): ≤ 2 patients
  patients with blood glucose >126 mg/dL (7 mmol/L): 1 patients
  patients with elevated creatine kinase levels over 10 times the upper limit of normal: 1 patient
[2]; mostly respiratory
  TEAE class infection: 39.2%
